From PubChem BioAssay (NCI)
“And” between values parts separate entries of the source, which are not always exact repeats. Identical values can stand only once.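 The compound was tested at five concentrations on cells cultured in 96-well plates, with a 48-hour exposure period. The concentration for 50% growth inhibition is given as GI50. At the TGI there is no net growth.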

Tests used:
Experiment in all cases: NCI-60 cell line screen, 48 h
[1] = tested on: PC-3 prostate
[2] = tested on: SF-539 CNS
[3] = tested on: HOP-92 NSCLC
[4] = tested on: HL-60(TB) leukemia
[5] = tested on: EKVX NSCLC
[6] = tested on: BT-549 breast
[7] = tested on: HCT-15 colon
[8] = tested on: MDA-MB-231 breast
[9] = tested on: COLO 205 colon
[10] = tested on: RPMI-8226 leukemia

SMILES | GI50 [1] | TGI [1] | GI50 [2] | TGI [2] | GI50 [3] | TGI [3] | GI50 [4] | TGI [4] | GI50 [5] | TGI [5] | GI50 [6] | TGI [6] | GI50 [7] | TGI [7] | GI50 [8] | TGI [8] | GI50 [9] | TGI [9] | GI50 [10] | TGI [10]
C[C@H](c1ccc(F)cc1CCCC(=O)O)N(c1cc(F)ccc1F)S(=O)(=O)c1ccc(Cl)cc1 | 26.5 µM | > 100 µM | 24500 nM | 67.9 µM | 17900 nM | > 82.5 µM | 30700 nM | > 95.1 µM | 30 µM | > 100 µM | 22.4 µM | 68.8 µM | 22.3 µM | 74.7 µM | 31.4 µM | > 100 µM | 33700 nM | > 92.9 µM | 30000 nM | > 88.5 µM
O=C1Nc2ccccc2/C1=C\c1c(-c2ccccc2)nc2sccn12 | 1.95 µM | 17.4 µM |  | > 34.4 µM | 2140 nM | 7.87 µM | 999 nM | 7.33 µM | 7.84 µM | 32.6 µM | 3.3 µM | 16.9 µM | 1.08 µM | 8.39 µM | 1.39 µM | 6.18 µM | 2230 nM | 16.4 µM | 909 nM | 3.74 µM
O=C(c1ccccc1)C(Cl)C(Cl)c1ccccc1 (stereo unspecified) | 5.29 µM | 15.8 µM | 3010 nM | 10.2 µM | 2310 nM | 6.99 µM | 3040 nM | 8.58 µM | 5.24 µM | 18.9 µM | 2.55 µM | 6.12 µM | 2.12 µM | 9.03 µM | 3.16 µM | 8.97 µM | 2060 nM | 4.26 µM | 2270 nM | 7.08 µM
CCc1ccccc1NC(=O)C(C#N)C1=C(Cl)C(=O)c2ccccc2C1=O (stereo unspecified) |  | 33 µM |  | 37.2 µM |  | > 100 µM |  | 83.3 µM |  | 33.7 µM |  | 71.7 µM |  | 28.7 µM |  | 22 µM |  | 31.1 µM |  | 77.9 µM
Cc1ccc(F)c(NC(=O)Nc2ccc(-c3cccc4[nH]nc(N)c34)cc2)c1 | 4.18 µM and 4.54 µM | 17.7 µM and > 10 µM | 1610 nM and 1520 nM | 6.67 µM and > 10 µM | 3670 nM and 3170 nM | 14.4 µM and 8.25 µM | 1950 nM and 3290 nM | 5.63 µM and > 10 µM | 3.58 µM and 3.52 µM | 16.6 µM and > 10 µM | 2.64 µM and 3.39 µM | 9.82 µM and > 10 µM | 3.21 µM and 3.11 µM | 11.2 µM and > 10 µM | 4.31 µM and 3.39 µM | 16.4 µM and > 10 µM | 2210 nM and 2270 nM | 4.32 µM and 4.9 µM | 2270 nM and 2390 nM | 6.11 µM and 6.27 µM
CC1CCC2C(C)C(=O)OC3OC4(C)CCC1C32OO4 (stereo unspecified) |  | > 100 µM |  | > 100 µM | > 100000 nM | > 100 µM |  | > 100 µM |  | > 100 µM |  | > 100 µM |  | > 100 µM |  | > 100 µM | > 100000 nM | > 100 µM |  | > 100 µM
CS(=O)(=O)CCNCc1ccc(-c2ccc3ncnc(Nc4ccc(OCc5cccc(F)c5)c(Cl)c4)c3c2)o1 | 9.68 µM and 5.3 µM and 4.45 µM | > 10 µM and > 100 µM and 46.4 µM | > 10000 nM and 9110 nM and 7500 nM | > 10 µM and 98.1 µM and 29.9 µM | 2170 nM and 18600 nM and 2030 nM | > 10 µM and > 100 µM and 14.4 µM |  | > 10 µM and > 100 µM and 23.6 µM | 0.374 µM and 0.0822 µM and 0.107 µM | > 10 µM and > 100 µM and 41.7 µM | > 10 µM and 19.7 µM and 7.43 µM | > 10 µM and > 47.5 µM and 44.7 µM | 4.97 µM and 3.63 µM and 3.54 µM | > 10 µM and > 100 µM and 27.6 µM | > 10 µM and 4.14 µM and 9.07 µM | > 10 µM and > 100 µM and 29.5 µM | > 10000 nM and > 78800 nM and 10300 nM | > 10 µM and > 100 µM and 33.3 µM | 3540 nM and 2820 nM and 1580 nM | > 10 µM and > 29.4 µM and 7.05 µM
CS(=O)(=O)N1CCC(n2c(=O)c(Oc3ccc(F)cc3F)cc3cnc(NC4CCOCC4)nc32)CC1 | > 25 µM | > 25 µM | > 25000 nM | > 25 µM | > 25000 nM | > 25 µM | > 25000 nM | > 25 µM |  |  | 24.5 µM | > 25 µM | > 25 µM | > 25 µM | > 25 µM | > 25 µM | > 25000 nM | > 25 µM | > 17500 nM | > 25 µM
O=C([O][Hg][c]1ccccc1)c1ccccc1 | 3.29 µM | 14.7 µM | 1580 nM | 3.26 µM | 1350 nM | 2.72 µM | 325 nM | 1.86 µM |  |  | 1.23 µM | 2.64 µM | 0.437 µM | 1.79 µM | 1.86 µM | 4.62 µM | 1890 nM | 3.35 µM | 1230 nM | 4.56 µM
CC(=O)OCC12CN(C#N)C3C4COC(CC41)C1(C(=O)N(C)c4ccccc41)C32 (stereo unspecified) |  | > 100 µM |  |  |  | 52.4 µM |  | 30.7 µM |  | 88.9 µM |  | 10.5 µM |  | 35.5 µM |  | 64.9 µM |  | 35.8 µM |  | > 100 µM
C/C(=N\NC(=S)N1CCN(c2ccccn2)CC1)c1ccccn1 |  | 15.1 µM | 27.2 nM | 8.02 µM | 2.95 nM | 13 µM | 41.6 nM | 0.0104 µM | 0.000138 µM |  |  | 0.577 µM |  | 14.5 µM |  | 18.5 µM |  |  |  | 23.6 µM
COc1ccc(-c2cc(/C=C3\C(=O)Nc4cc(Cl)ccc43)[nH]n2)cc1 | 2.75 µM | > 100 µM | 2410 nM | 7.52 µM | 2330 nM | 56.9 µM | 2260 nM | 6.33 µM |  |  | 7.02 µM | 62 µM | 2.53 µM | > 100 µM | 4.09 µM | > 100 µM | 2060 nM | 5.51 µM | 3300 nM | 40 µM
CN(C)C1CCN(Cc2ccc(NC(=O)c3cncc(C#Cc4cnc(N)c5ncccc45)c3)cc2C(F)(F)F)CC1 | 7.42 µM | 15.5 µM | 2130 nM | 8.98 µM | 2770 nM | 11.3 µM | 9800 nM | 24.4 µM | 8.46 µM | 18.7 µM | 7.77 µM | 15.3 µM | 5.08 µM | 13.7 µM | 0.742 µM | 1.61 µM |  |  | 4310 nM | 17 µM
Oc1c(C(Nc2ccccn2)c2cccc(Oc3ccccc3)c2)ccc2cccnc12 (stereo unspecified) | 0.483 µM | 20.1 µM | 372 nM | 3.56 µM | 522 nM | 23.7 µM | 432 nM | 37 µM |  |  | 0.479 µM | 13 µM | 0.331 µM | > 100 µM | 0.617 µM | 19.5 µM | 492 nM | 14.7 µM | 600 nM | 84 µM
